Laboratory results reported in US20090233841A1, “ANALGESIC CONJUGATES” (Regents of the University of Minnesota, priority 2005, published 2009).
“Also recorded” adds a separate entry of the source.

Experiments:
[1] = test system: male ICR mice; assay: Physical dependence: naloxone-precipitated withdrawal jumping after chronic ICV infusion; format: in vivo, mouse; settings: for physical dependence on chronic ICV administration: 3-day ICV infusion, naloxone-precipitated jumping; for # of Jumps (SEM), naloxone-precipitated withdrawal: average jumps in 10 minutes after naloxone 1 mg/kg sc, after 3-day ICV infusion
Description: (§1) Chronic administration To investigate tolerance and dependence associated with these conjugates, chronic ICV administration studies were performed. The compound of interest was administered ICV via a cannula using an osmotic minipump for 3 days, as previously described (Gomori et al., 2003; Mashiko et al., 2003). Withdrawal was measured by administering naloxone (1 mg/kg; subcutaneous (sc)) and counting the naloxone-precipitated jumps for 10 minutes. Tolerance was determined by administering challenge doses of the compound after chronic infusion for 3 days, and determining the chronic ED50 value at that time.
(§2) Chronic ICV infusion. Osmotic minipumps (model 1003D, Alzet, Durect Corporation, Cupertino, Calif.) were filled with saline or the drug to be tested. The dose of each drug was twelve times its ED50 (nmol)/hour. The minipumps were connected by a 1.6-1.8 cm length of PE-60 tubing to a 3-mm long cannula (osmotic pump connector cannula, Plastics One, Roanoke, Va.) and primed in sterile saline at 37° C. overnight.
(§3) The next day, mice were anesthetized with Avertin (2,2,2-tribromoethanol (370 mg/kg, IP)/tert amyl alcohol (0.16 mg/kg, IP)) before surgery. The scalp was shaved and an incision was made along the midline of the scalp. Hemostats were used to make a pocket under the skin between the shoulder blades. The skull was scraped clean of periosteum so that the cannula pedestal would properly adhere to the skull. A micro drill (Fine Science Tools Inc., Foster City, Calif.) was used to drill a hole approximately 1.6 mm lateral and 0.6 mm caudal to bregma. The minipump was placed between the shoulder blades, the cannula was inserted in the drilled hole into the lateral ventricle, and the cannula pedestal was affixed to the skull with cyanoacrylate glue. The animals were allowed to recover on a heating pad (Fine Science Tools, Foster City, Calif.) and were returned to their cages in the animal facility for three days.
Testing for dependence and tolerance. The development of physical dependence was assessed by quantifying withdrawal jumping observed during precipitated withdrawal (Way et al., 1969) on the fourth day after surgery. Mice were injected with naloxone (1 mg/kg, sc) and placed into Plexiglas cylinders for 10 minutes. During those 10 minutes, vertical jumps were counted as withdrawal signs.

[2] = test system: male ICR mice; assay: Mouse radiant heat tail flick assay after acute ICV administration; format: in vivo; settings: mouse tail flick, acute ICV administration; for ED50 nmol (95% C.L.), antinociceptive potency: conjugates and coadministration; for Ligand ED50 pmol (95% C.L.), antinociceptive potency: mu control ligands
Description: Acute drug administration. Drugs were dissolved in sterile saline (0.9% NaCl). Animals were anesthetized with halothane and drugs were administered with a Hamilton syringe mated to a shortened (3 mm) 27-g needle in a volume of 4 μl by ICV injection into the lateral cerebral ventricle (Haley et al., 1957). The injection site was 1.6 mm lateral and 0.6 mm caudal to bregma.
Antinociceptive testing. […] Mice were tested once before injection (control time).

[3] = test system: male ICR mice; assay: Tolerance: tail flick ED50 after 3-day chronic ICV infusion (osmotic minipump); format: in vivo, mouse; settings: for tolerance on chronic ICV administration: 3-day ICV infusion; for Chronic ED50 nmol (95% C.L.): compound chronically administered ICV for 3 days, then challenge doses; for Saline ED50 nmol (95% C.L.): saline chronically administered ICV for 3 days, then challenge doses of compound; for fold increase in ED50 value after chronic ICV infusion: three-day ICV infusion
Description: as §1, §2, §3
To test the degree of tolerance developed, the osmotic minipump was removed and the mice were returned to their cages for four hours. The mice were then injected with the test drug into the contralateral lateral cerebral ventricle and antinociception was measured with the tail flick test as described above.

Structure (SMILES) | # of Jumps (SEM), naloxone-precipitated withdrawal [1] | ED50 nmol (95% C.L.), antinociceptive potency [2] | Chronic ED50 nmol (95% C.L.) [3] | Saline ED50 nmol (95% C.L.) [3] | Ligand ED50 pmol (95% C.L.), antinociceptive potency [2] [pmol] | also measured
CN1CCC23c4c5ccc(O)c4OC2C(NC(=O)COCC(=O)NCCCNC(=O)COCC(=O)Nc2cccc4c6c([nH]c24)C2Oc4c(O)ccc7c4C24CCN(CC2CC2)C(C7)C4(O)C6)CCC3(O)C1C5 (centres unmarked) [Compound 4] | 0.9 (0.7) | 1.49 (1.04-1.95) nmol | 5.61 (4.39-6.83) nmol | 1.54 (0.89-2.20) nmol |  | physical dependence on chronic ICV administration ([1]; listed as MDAN-17): without producing dependence; also recorded: without physical dependence; # of Jumps (SEM), naloxone-precipitated withdrawal ([1]; listed as MDAN-17): 0.94; tolerance on chronic ICV administration ([3]; listed as MDAN-17): produced tolerance; also recorded: tolerance without physical dependence developed; fold increase in ED50 value after chronic ICV infusion [3]: 3.6 fold
CN1CCC23c4c5ccc(O)c4OC2C(NC(=O)COCC(=O)NCCCCNC(=O)COCC(=O)Nc2cccc4c6c([nH]c24)C2Oc4c(O)ccc7c4C24CCN(CC2CC2)C(C7)C4(O)C6)CCC3(O)C1C5 (centres unmarked) [Compound 5] | 8.9 (3.0) | 0.95 (0.68-1.23) nmol | 4.75 (3.50-6.00) nmol | 1.29 (0.97-1.61) nmol |  | physical dependence on chronic ICV administration ([1]; listed as MDAN-18): without producing dependence; also recorded: without physical dependence; # of Jumps (SEM), naloxone-precipitated withdrawal ([1]; listed as MDAN-18): 8.9; tolerance on chronic ICV administration ([3]; listed as MDAN-18): produced tolerance; also recorded: tolerance without physical dependence developed; fold increase in ED50 value after chronic ICV infusion [3]: 3.7 fold
CN1CCC23c4c5ccc(O)c4OC2C(NC(=O)COCC(=O)NCCCCCCNC(=O)COCC(=O)Nc2cccc4c6c([nH]c24)C2Oc4c(O)ccc7c4C24CCN(CC2CC2)C(C7)C4(O)C6)CCC3(O)C1C5 (stereo not drawn) [Compound 7, 7′-{2-[(6-{2-[({(5α,6α)-4,5-Epoxy-3,14-dihydroxy-17-methylmorphin-6-yl}-aminocarbonyl)-methoxy]-acetylamino}-hexylaminocarbonyl)-methoxy]-acetylamino}-naltrindole] | 0.4 (0.4) | 0.17 (0.15-0.19) nmol | 0.17 (0.13-0.21) nmol | 0.17 (0.15-0.20) nmol |  | physical dependence on chronic ICV administration ([1]; listed as MDAN-20): no tolerance or dependence was observed; also recorded: produced no tolerance or physical dependence; tolerance on chronic ICV administration ([3]; listed as MDAN-20): no tolerance or dependence was observed; also recorded: produced no tolerance or physical dependence
CNC(=O)COCC(=O)NCCNC(=O)COCC(=O)NC1CCC2(O)C3Cc4ccc(O)c5c4C2(CCN3C)C1O5 (centres unmarked) [Compound 9, reference compound] |  |  |  |  | 39.39 | 
CNC(=O)COCC(=O)NCCCNC(=O)COCC(=O)NC1CCC2(O)C3Cc4ccc(O)c5c4C2(CCN3C)C1O5 (centres unmarked) [Compound 10, reference compound] |  |  |  |  | 39.69 | 
CNC(=O)COCC(=O)NCCCCCCNC(=O)COCC(=O)N[C@H]1CC[C@@]2(O)[C@H]3Cc4ccc(O)c5c4[C@@]2(CCN3C)[C@H]1O5 [Compound 13, (5α,6α)-6-{2-[(6-{2-[(Methylaminocarbonyl)-methoxy]-acetylamino}-hexylaminocarbonyl)-methoxy]-acetylamino}-4,5-epoxy-3,14-dihydroxy-17-methylmorphinan, reference compound] |  |  |  |  | 37.25 | 
CNC(=O)COCC(=O)NCCCCCCCNC(=O)COCC(=O)NC1CCC2(O)C3Cc4ccc(O)c5c4C2(CCN3C)C1O5 (centres unmarked) [Compound 14, reference compound] |  |  |  |  | 43.56 | 
